Molecules are shown by their SMILES. Like-named read-outs stand apart in the source and are kept apart here.

Broadly, the IC50 is the concentration that inhibits the measured activity by half.

Test [1] concerns Aβ40 in conditioned medium of cells stably expressing Amyloid Precursor Protein (APP). The test is described as follows: In vitro BACE cell-based assay (Aβ40 sandwich ELISA). The following applies: Homo sapiens. The protocol: In Vitro BACE Cell-Based Assay
The cell-based assay measures inhibition or reduction of Aβ40 in conditioned medium of test compound treated cells expressing amyloid precursor protein.
Cells stably expressing Amyloid Precursor Protein (APP) were plated at a density of 40K cells/well in 96 well plates (Costar). The cells were cultivated for 24 hours at 37° C. and 5% CO2 in DMEM supplemented with 10% FBS. The test compounds were then added to cells in 10-point dose response concentrations with the starting concentration being either 100 μM or 10 μM. The compounds were diluted from stock solutions in DMSO and the final DMSO concentration of the test compounds on cells was 0.1%. After 24 h of incubation with the test compounds the supernatant conditioned media was collected and the Aβ 40 levels were determined using a sandwich ELISA. The IC50 of the compound was calculated from the percent of control or percent inhibition of Aβ 40 as a function of the concentration of the test compound.
The sandwich ELISA to detect Aβ 40 was performed in 96 well microtiter plates, which were pre-treated with goat anti-rabbit IgG (Pierce). The capture and detecting antibody pair that were used to detect Aβ 40 from cell supernatants were affinity purified pAb40 (Biosource) and biotinylated 6E10 (Signet Labs Inc.), respectively. The optimal concentration for the pAb40 antibody was 3 μg/ml in Superblock/TBS (Pierce) that was supplemented with 0.05% Tween 20 (Sigma).
Cellular supernatants were incubated with the capture antibody for 3 h at 4° C., followed by 3 wash steps in TBS-tween (0.05%). The detecting antibody incubation was for 2 h at 4° C., again followed by the wash steps as described previously. The final readout of the ELISA is Time-Resolved Fluorescence (counts per minute) using Delfia reagents Streptavidin-Europium and Enhancement solutions (Perkin Elmer) and the Victor 2 multilabel counter (Perkin Elmer).
For orientation: An ELISA detects its analyte on a solid surface through an enzyme-linked reagent.

Test [2] deals with Cathepsin D (Cat D) (Homo sapiens (Human), UniProt P07339). In words: In vitro enzymatic Cathepsin D (Cat D) FRET assay. Type of test: biochemical. The note with it: read-out: CatD IC50. On the procedure: In Vitro Enzymatic Cathepsin D (Cat D) FRET (Fluorescence Resonance Energy Transfer) Assay
Recombinant Cat D was expressed in CHO cells. The assay buffer for CathepsinD is 0.05 M citrate pH 3.5, 10% DMSO final, 5 mM CHAPS. […] The assays are effectively started by the addition of different FRET substrates (20 nM for Cat D) and the combination is incubated for one hour. The FRET assay is terminated with by addition of Tris buffer, which raises the pH to neutrality, and the fluorescence is determined. The FRET substrate is a peptide with commercially available fluorophore and quencher, on opposite sides of the BACE cleavage site. […] Proteolytic cleavage of the FRET substrate releases quenching of fluorescence (Cat D excitation 500 nm and emission 580 nm).
In addition, the cathepsin D and cathepsin E assays are described in PCT publication WO2011069934.

The mark [3] stands for this setting: average IC50, cathepsin D enzyme assay.

Cathepsin D (Cat D), sequence (P07339 65-412, species assumed): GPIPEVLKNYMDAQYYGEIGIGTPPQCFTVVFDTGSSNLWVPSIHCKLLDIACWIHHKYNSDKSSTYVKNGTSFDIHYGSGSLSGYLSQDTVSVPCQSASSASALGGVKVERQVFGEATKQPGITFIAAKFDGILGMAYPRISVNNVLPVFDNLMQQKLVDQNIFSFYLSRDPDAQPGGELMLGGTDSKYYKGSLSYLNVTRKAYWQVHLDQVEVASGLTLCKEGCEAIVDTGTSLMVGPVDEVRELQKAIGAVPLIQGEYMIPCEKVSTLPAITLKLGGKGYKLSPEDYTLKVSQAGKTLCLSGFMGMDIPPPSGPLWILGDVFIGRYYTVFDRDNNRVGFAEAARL

With `N#Cc1cnc2c(Nc3ccc(F)c([C@]4(CF)C[C@@H](C(F)(F)F)OC(N)=N4)c3)ncnc2c1` [Example 23, 4-((3-((4S,6S)-2-amino-4-(fluoromethyl)-6-(trifluoromethyl)-5,6-dihydro-4H-1,3-oxazin-4-yl)-4-fluorophenyl)amino)pyrido[3,2-d]pyrimidine-7-carbonitrile], in test [1] (HEK293, average IC50, HEK cells, read-out: HEK cell assay IC50), the IC50 is 0.192 µM.

Regarding `NC1=N[C@](CF)(c2cc(Oc3cc(-c4ccccc4)ccn3)ccc2F)C[C@@H](C(F)(F)F)O1` [Example 102, (4S,6S)-4-(2-fluoro-5-((4-phenylpyridin-2-yl)oxy)phenyl)-4-(fluoromethyl)-6-(trifluoromethyl)-5,6-dihydro-4H-1,3-oxazin-2-amine], the IC50 in test [1] (HEK293, read-out: HEK cell assay IC50) was determined as 2.82 µM; in test [2] (average IC50) it was 114 µM. As to `COc1cnc2c(Nc3cc(F)c(F)c([C@]4(C)C[C@@H](C(F)(F)F)OC(N)=N4)c3)nccc2n1` [Example 178, (4S,6S)-4-(2,3-difluoro-5-((2-methoxypyrido[3,4-b]pyrazin-5-yl)amino)phenyl)-4-methyl-6-(trifluoromethyl)-5,6-dihydro-4H-1,3-oxazin-2-amine], the IC50 in test [2] (setting [3]) came out at 519 µM. Still for that read-out and setting: the value for `COc1cnc2c(Nc3cc(F)c(F)c([C@]4(C)C[C@@H](C(F)(F)F)OC(N)=N4)c3)nccc2c1` [Example 179] was greater than 400 µM. `CC#CCOc1cnc(C(=O)Nc2cc(F)c(F)c([C@]3(C)C[C@@H](C(F)(F)F)OC(N)=N3)c2)c(C)c1` [Example 188, N-(3-((4S,6S)-2-amino-4-methyl-6-(trifluoromethyl)-5,6-dihydro-4H-1,3-oxazin-4-yl)-4,5-difluorophenyl)-5-(but-2-yn-1-yloxy)-3-methylpicolinamide]: the concentration for half-maximal inhibition (IC50) in test [2] (average) stood at 286 µM.

Consider `Cc1cc(OCC(F)(F)F)cnc1C(=O)Nc1cc(F)c(F)c([C@]2(C)C[C@@H](C(F)(F)F)OC(N)=N2)c1` [Example 194, N-(3-((4S,6S)-2-amino-4-methyl-6-(trifluoromethyl)-5,6-dihydro-4H-1,3-oxazin-4-yl)-4,5-difluorophenyl)-3-methyl-5-(2,2,2-trifluoroethoxy)picolinamide], for which the IC50 in test [2] (average) was greater than 400 µM.

For `Cc1nc(OCC(F)(F)F)cnc1C(=O)Nc1cc(F)c(F)c([C@]2(C)C[C@@H](C(F)(F)F)OC(N)=N2)c1` [Example 197, N-(3-((4S,6S)-2-amino-4-methyl-6-(trifluoromethyl)-5,6-dihydro-4H-1,3-oxazin-4-yl)-4,5-difluorophenyl)-3-methyl-5-(2,2,2-trifluoroethoxy)pyrazine-2-carboxamide], the IC50 in test [2] (average) is greater than 400 µM.

As to `C[C@@]1(c2cc(NC(=O)c3ncc(C(F)F)cc3Cl)cc(F)c2F)C[C@@H](C(F)(F)F)OC(N)=N1` [Example 198, N-(3-((4S,6S)-2-amino-4-methyl-6-(trifluoromethyl)-5,6-dihydro-4H-1,3-oxazin-4-yl)-4,5-difluorophenyl)-3-chloro-5-(difluoromethyl)picolinamide], the IC50 in test [2] (average) was greater than 400 µM. With `C[C@@]1(c2cc(NC(=O)c3ccc(C(F)F)cn3)cc(F)c2F)C[C@@H](C(F)(F)F)OC(N)=N1` [Example 200, N-(3-((4S,6S)-2-amino-4-methyl-6-(trifluoromethyl)-5,6-dihydro-4H-1,3-oxazin-4-yl)-4,5-difluorophenyl)-5-(difluoromethyl)picolinamide], in test [2] (average), the IC50 stood at 997 µM. Turning to `COc1cnc(C(=O)Nc2cc(F)c(F)c([C@]3(C)C[C@@H](C(F)(F)F)OC(N)=N3)c2)c(C)c1` [Example 202, N-(3-((4S,6S)-2-amino-4-methyl-6-(trifluoromethyl)-5,6-dihydro-4H-1,3-oxazin-4-yl)-4,5-difluorophenyl)-5-methoxy-3-methylpicolinamide], the IC50 in test [2] (average) stood at 1140 µM. Still for that read-out and setting: the figure for `C[C@@]1(c2cc(NC(=O)c3ccc(Cl)cn3)cc(Cl)c2F)C[C@@H](C(F)(F)F)OC(N)=N1` [Example 207, N-(3-((4S,6S)-2-amino-4-methyl-6-(trifluoromethyl)-5,6-dihydro-4H-1,3-oxazin-4-yl)-5-chloro-4-fluorophenyl)-5-chloropicolinamide] is 386 µM; for `Cc1cc(C#N)cnc1C(=O)Nc1cc(Cl)c(F)c([C@]2(C)C[C@@H](C(F)(F)F)OC(N)=N2)c1` [Example 210, N-(3-((4S,6S)-2-amino-4-methyl-6-(trifluoromethyl)-5,6-dihydro-4H-1,3-oxazin-4-yl)-5-chloro-4-fluorophenyl)-5-cyano-3-methylpicolinamide] it is 416 µM; for `COc1cnc(C(=O)Nc2cc(Cl)c(F)c([C@]3(C)C[C@@H](C(F)(F)F)OC(N)=N3)c2)c(C)n1` [Example 215, N-(3-((4S,6S)-2-amino-4-methyl-6-(trifluoromethyl)-5,6-dihydro-4H-1,3-oxazin-4-yl)-5-chloro-4-fluorophenyl)-5-methoxy-3-methylpyrazine-2-carboxamide] it is greater than 400 µM.

On to `Cc1cc(C(F)F)cnc1C(=O)Nc1cc(C)c(F)c([C@]2(CF)C[C@@H](C(F)(F)F)OC(N)=N2)c1` [Example 216, N-(3-((4S,6S)-2-amino-4-(fluoromethyl)-6-(trifluoromethyl)-5,6-dihydro-4H-1,3-oxazin-4-yl)-4-fluoro-5-methylphenyl)-5-(difluoromethyl)-3-methylpicolinamide], for which, in test [2] (average), the IC50 is greater than 400 µM. On the same count and under the same terms, the figure for `Cc1cc(NC(=O)c2ccc(C(F)F)cn2)cc([C@]2(CF)C[C@@H](C(F)(F)F)OC(N)=N2)c1F` [Example 221, N-(3-((4S,6S)-2-amino-4-(fluoromethyl)-6-(trifluoromethyl)-5,6-dihydro-4H-1,3-oxazin-4-yl)-4-fluoro-5-methylphenyl)-5-(difluoromethyl)picolinamide] is 992 µM; for `Cc1cc(NC(=O)c2ccc(F)cn2)cc([C@]2(CF)C[C@@H](C(F)(F)F)OC(N)=N2)c1F` [Example 223, N-(3-((4S,6S)-2-amino-4-(fluoromethyl)-6-(trifluoromethyl)-5,6-dihydro-4H-1,3-oxazin-4-yl)-4-fluoro-5-methylphenyl)-5-fluoropicolinamide] it is 833 µM.

On to `COc1ccc(C(=O)Nc2cc(C)c(F)c([C@]3(CF)C[C@@H](C(F)(F)F)OC(N)=N3)c2)nc1` [Example 229, N-(3-((4S,6S)-2-amino-4-(fluoromethyl)-6-(trifluoromethyl)-5,6-dihydro-4H-1,3-oxazin-4-yl)-4-fluoro-5-methylphenyl)-5-methoxypicolinamide], for which the IC50 in test [2] (average) came to 1120 µM. Still for that read-out and setting: the figure for `NC1=N[C@](CF)(c2cc(NC(=O)c3ncc(Cl)cc3F)cc(F)c2F)C[C@@H](C(F)(F)F)O1` [Example 233, N-(3-((4S,6S)-2-amino-4-(fluoromethyl)-6-(trifluoromethyl)-5,6-dihydro-4H-1,3-oxazin-4-yl)-4,5-difluorophenyl)-5-chloro-3-fluoropicolinamide] is greater than 400 µM. On the same count and under the same terms, the figure for `C[C@@]1(c2cc(NC(=O)c3ccc(Cl)cn3)cc(F)c2Cl)C[C@@H](C(F)(F)F)OC(N)=N1` [Example 236, N-(3-((4S,6S)-2-amino-4-methyl-6-(trifluoromethyl)-5,6-dihydro-4H-1,3-oxazin-4-yl)-4-chloro-5-fluorophenyl)-5-chloropicolinamide] is 408 µM.

Take `COc1cnc(C(=O)Nc2cc(F)c(Cl)c([C@]3(C)C[C@@H](C(F)(F)F)OC(N)=N3)c2)cn1` [Example 237, N-(3-((4S,6S)-2-amino-4-methyl-6-(trifluoromethyl)-5,6-dihydro-4H-1,3-oxazin-4-yl)-4-chloro-5-fluorophenyl)-5-methoxypyrazine-2-carboxamide]: in test [2] (average), the IC50 stood at 194 µM.

For the origin of these results see patent US9296734B2 (AMGEN INC., priority 2013, dated 2016).
